What all share (assay type): in vivo
One series concerns SETVI (Setaria viridis). Description: greenhouse herbicidal activity, post-emergence treatment. The following applies: post-emergence method, application rate 16 g/ha, scale from 0 to 100, read-out: herbicidal activity against SETVI. The source says:
(§1) The seeds of the test plants were sown separately for each species. For the post-emergence treatment, the test plants were first grown to a height of 3 to 15 cm, depending on the plant habit, and only then treated with the active ingredients which had been suspended or emulsified in water. For this purpose, the test plants were either sown directly and grown in the same containers, or they were first grown separately as seedlings and transplanted into the test containers a few days prior to treatment. Depending on the species, the plants were kept at 10-25° C. or 20-35° C., respectively. The test period extended over 2 to 4 weeks. During this time, the plants were tended, and their response to the individual treatments was evaluated. Evaluation was carried out using a scale from 0 to 100. 100 means no emergence of the plants, or complete destruction of at least the aerial moieties, and 0 means no damage, or normal course of growth. A good herbicidal activity is given at values of at least 70 and a very good herbicidal activity is given at values of at least 85. [table]

The subject of series [1] is CHEAL (Chenopodium album). Described as above. The settings on record: post-emergence method, application rate 16 g/ha, scale from 0 to 100, read-out: herbicidal activity against CHEAL.
From the text: as §1

In series [2] the test system is ECHCG (Echinocloa crus-galli). The description is as above. The settings on record: scale from 0 to 100; for pest or weed control at 16 g/ha: Echinochloa crus-galli, post-emergence method, application rate 16 g/ha, read-out: herbicidal activity against ECHCG; for damages unwanted plants ECHCG: post-emergence application, 2 g/ha, control 21 days after treatment (greenhouse).
From the text: as §1

Series [3] has as its system AMARE (Amaranthus retroflexus). The description is as above. The settings on record: post-emergence method, application rate 16 g/ha, scale from 0 to 100, read-out: herbicidal activity against AMARE.
From the text: as §1

For series [4], the system named is ZEAMX (Zea mays). Description: greenhouse crop plant damage, post-emergence treatment. The settings on record: post-emergence application, 2 g/ha, control 21 days after treatment (greenhouse), scale from 0 to 100.
From the text: as §1

Series [5] has as its system AMARE (Amaranthus retroflexus). Nature of the series: greenhouse herbicidal activity, pre-emergence treatment. The settings on record: pre-emergence application, 32 g/ha, control 21 days after treatment (greenhouse), scale from 0 to 100. The text has this:
(§2) The seeds of the test plants were sown separately for each species. For the pre-emergence treatment, the active ingredients, which had been suspended or emulsified in water, were applied directly after sowing by means of finely distributing nozzles. The containers were irrigated gently to promote germination and growth and subsequently covered with transparent plastic hoods until the plants had rooted. This cover caused uniform germination of the test plants, unless this had been impaired by the active ingredients. Depending on the species, the plants were kept at 10-25° C. or 20-35° C., respectively. The test period extended over 2 to 4 weeks. During this time, the plants were tended, and their response to the individual treatments was evaluated. Evaluation was carried out using a scale from 0 to 100. 100 means no emergence of the plants, or complete destruction of at least the aerial moieties, and 0 means no damage, or normal course of growth. A good herbicidal activity is given at values of at least 70 and a very good herbicidal activity is given at values of at least 85. [table]

Series [6] concerns ZEAMX (Zea mays). Description: greenhouse crop plant damage, pre-emergence treatment. The settings on record: pre-emergence application, 32 g/ha, control 21 days after treatment (greenhouse), scale from 0 to 100.
From the text: as §2

Where only a bound is given, the exact number is not on record here.

The text below walks through data of patent publication US12133529B2, “Herbicidal phenylethers” (BASF SE, priority 2017, dated 2024).

In the case of `CCOC(=O)COc1ccccc1Oc1cc(-n2c(=O)c(C)c(C(F)(F)F)n(C)c2=O)c(F)cc1Cl` [Example 16], the pest or weed control at 16 g/ha (with SETVI (Setaria viridis); in series [1]; in series [2]; in series [3]) was no less than 85% in each case. Also, the “damages unwanted plants ECHCG” value in series [2] came to 100. Further, the “damages crop plants ZEAMX” value in the series with ZEAMX (Zea mays) [4] was 10.

On to `CCOC(=O)COc1ccccc1Oc1cc(-n2c(=O)cc(C(F)(F)F)n(C)c2=O)c(F)cc1Cl` [compound a-9, reference compound], for which, in series [2], the “damages unwanted plants ECHCG” value was found to be 98. In addition, the “damages unwanted plants AMARE” value in series [5] is recorded as 100. Besides, the figures for the “damages crop plants ZEAMX” value in the series on ZEAMX (Zea mays) [6] and with ZEAMX (Zea mays) [4] were 40 and 70, respectively.

As to `CCOC(=O)C(C)Oc1ncccc1Oc1cc(-n2nc3n(c2=O)CCCC3)c(Cl)cc1Cl` (stereo not drawn) [Example 9], the pest or weed control at 16 g/ha in series [1], in series [2] and in series [3] was no less than 85% each time.

For the molecule `O=C(O)COc1ncccc1Oc1cc(-n2nc3n(c2=O)CCCC3)c(Cl)cc1Cl` [Example 8], the pest or weed control at 16 g/ha (in the series with SETVI (Setaria viridis); in series [1]; in series [2]; in series [3]) was no less than 85% in each case.

As to `CCOC(=O)COc1ncccc1Oc1cc(-n2c(=O)c(C)c(C(F)(F)F)n(C)c2=O)c(F)cc1[N+](=O)[O-]` [Example 4, Ethyl 2-[[3-[5-[3,5-dimethyl-2,6-dioxo-4-(trifluoromethyl)pyrimidin-1-yl]-4-fluoro-2-nitro-phenoxy]-2-pyridyl]oxy]acetate], the pest or weed control at 16 g/ha (in the series with SETVI (Setaria viridis); in series [1]; in series [2]; in series [3]) was no less than 85% each time.

In the case of `CCOC(=O)COc1ncccc1Oc1cc(-n2nc3n(c2=O)CCCC3)c(Cl)cc1Cl` [Example 2, ethyl 2-[[3-[2,4-dichloro-5-(3-oxo-5,6,7,8-tetrahydro-[1,2,4]triazolo[4,3-a]pyridin-2-yl)phenoxy]-2-pyridyl]oxy]acetate], the pest or weed control at 16 g/ha (in the series with SETVI (Setaria viridis); in series [1]; in series [2]; in series [3]) was no less than 85% each time.

On to `CCOC(=O)COc1ncccc1Oc1cc(-c2nn(C)c(C(F)(F)F)cc2=O)c(F)cc1Cl` [Example 15], for which the pest or weed control at 16 g/ha (with SETVI (Setaria viridis); in series [1]; in series [2]; in series [3]) was no less than 85% throughout.

With `CCOC(=O)COc1ccccc1Oc1cc(-n2c(=S)cc(C(F)(F)F)n(C)c2=O)c(F)cc1Cl` [Example 17], the pest or weed control at 16 g/ha (with SETVI (Setaria viridis); in series [1]; in series [2]; in series [3]) was no less than 85% each time. In series [5], the “damages unwanted plants AMARE” value worked out at 100. Moreover, the “damages crop plants ZEAMX” value with ZEAMX (Zea mays) [6] was 0.

As for `O=C(O)COc1ncccc1Oc1cc(-c2ncc(C(F)(F)F)cc2Cl)c(F)cc1Cl` [Example 19], the pest or weed control at 16 g/ha (with SETVI (Setaria viridis); in series [1]; in series [2]; in series [3]) was no less than 85% each time.

In the case of `COC(=O)C(OC)Oc1ccccc1Oc1cc(-n2nc3n(c2=O)CCCC3)c(Cl)cc1Cl` (stereo not drawn) [Example 7], the pest or weed control at 16 g/ha (in the series on SETVI (Setaria viridis); in series [1]; in series [2]; in series [3]) was no less than 85% in each case.

On to `CCOC(=O)COc1ncccc1Oc1cc(-c2ncc(C(F)(F)F)cc2Cl)c(F)cc1Cl` [Example 18], for which the pest or weed control at 16 g/ha (in the series on SETVI (Setaria viridis); in series [1]; in series [2]; in series [3]) was no less than 85% throughout.

On to `CCOC(=O)COc1ncccc1Oc1cc(-c2nn(C)c(OC(F)F)c2Cl)c(F)cc1Cl` [Example 1, ethyl 2-[[3-[2-chloro-5-[4-chloro-5-(difluoromethoxy)-1-methyl-pyrazol-3-yl]-4-fluoro-phenoxy]-2-pyridyl]oxy]acetate], for which the pest or weed control at 16 g/ha (in the series on SETVI (Setaria viridis); in series [1]; in series [2]; in series [3]) was no less than 85% throughout.
